Test results published in paper PMC11247486, “Improving the In Vivo Stability of [^52Mn]Mn(II) Complexes with 18-Membered Macrocyclic Chelators for PET Imaging” (Journal of Medicinal Chemistry, 2024).
Read-outs that look alike come from different tables or passages of the source.

Assays:
[1] = pH-potentiometric titrations, stability constants of the Mn(II) complexes; assay type: physicochemical; details: 0.15 M NaCl, 25°C
Experimental: The stability constants of the Mn(II) complexes with PYAN and CHXPYAN defined by eq 2 were also determined through pH-potentiometric titrations. [drawing 2] 2
(§1) The protonation constants of PYAN and CHXPYAN and the stability constants of Mn(II) complexes were determined by pH-potentiometric titrations. The metal-to-ligand concentration ratio was 1:1 (the concentration of the ligand was generally 0.002 M). For the pH measurements and titrations, a Metrohm 888 Titrando titration workstation and Metrohm-6.0234.110 combined electrode was used. Equilibrium measurements were carried out at a constant ionic strength (0.15 M NaCl) in 6 mL samples at 25 °C. The solutions were stirred, and N2 was bubbled through them. The titrations were made in the pH range of 1.7–12.0. KH-phthalate (pH = 4.005) and borax (pH = 9.177) buffers were used to calibrate the pH meter. For the calculation of [H^+] from the measured pH values, the method proposed by Irving et al. was used as follows.[59] A 0.01 M HCl solution was titrated with a standardized NaOH solution at 0.15 M NaCl ionic strength. The differences (A) between the measured (pHread) and calculated pH (−log[H^+]) values were used to obtain the equilibrium H^+ concentration from the pH values measured in the titration experiments (A = 0.04). For the equilibrium calculations, the stoichiometric water ionic product (pKw) was also needed to calculate the [OH^–] values under basic conditions. The VNaOH – pHread data pairs of the HCl–NaOH titration obtained in the pH range of 10.5–12.0 were used to calculate the pKw value (pKw = 13.77). The protonation and stability constants were calculated with the PSEQUAD program.[60]

[2] = pH-potentiometric titrations, ligand protonation constants; assay type: physicochemical; details: 0.15 M NaCl, 25°C
Experimental: Chelator protonation constants (log Ki^H) defined by eq 1 were determined using pH-potentiometric titrations, which afforded four protonation constants for each chelator attributed to the protonation of the amine N atoms (Table 2, and standard deviations are shown in parentheses). [drawing 1] 1 where i = 1, 2...4. The first two protonation constants adopt nearly identical values for both chelators, while the third and fourth protonation constants are much lower for CHXPYAN than for PYAN, which is consistent with the results obtained by Jackels et al.[25] The high rigidity of CHXPYAN likely forces the protonated amines to be placed at a shorter distance than in PYAN, reducing the values of log K3^H and log K4^H for the cyclohexyl derivative due to electrostatic effects. […] The structurally related 18-membered macrocycle 18-ane-N6 is characterized by a higher basicity compared with PYAN and CHXPYAN, as expected due to the increased number of amine N atoms and its higher flexibility.[43]
as §1

[3] = cited from earlier work
[4] = cited from earlier work; remark: listed apart in the source
[5] = Transmetalation (dissociation) kinetics of the Mn(II) complexes with Cu2+; assay type: physicochemical; details: 0.15 M NaCl, 25 °C
Experimental: There is a wide consensus among the coordination chemistry community that kinetic inertness is more important for the safe use of metal complexes for imaging applications than thermodynamic stability.[8],[49],[50] Thus, we conducted a detailed investigation of the transmetalation kinetics of the Mn-PYAN and Mn-CHXPYAN complexes, by following their exchange reactions with Cu^2+ in the pH range of 2.5–4.5 (eq 3). [drawing 3] 3
All reactions were carried out in the presence of a large excess of Cu^2+ in order to guarantee the pseudo-first-order kinetic conditions. The transmetalation of Mn-PYAN in the pH range ∼2.0–4.5 is very fast, and thus the rates of the reactions were measured using the stopped-flow technique. Conversely, the exchange reactions of the Mn-CHXPYAN complex are slow and could be studied by using conventional methods. The transmetalation reactions of Mn-PYAN and Mn-CHXPYAN were monitored by following the formation of the corresponding Cu(II) complexes at 295 nm.
The kd values increase upon increase in [H^+] and are independent of the concentration of Cu^2+ as it was found for Mn-PCTA, Mn-PC3AM, and Mn-bispidine complexes.[49],[51] […] The increase in the kd values with increasing H^+ concentration can be interpreted in terms of the extremely slow spontaneous (k0, eq 4) and the proton-assisted (k*[Mn(HL), eq 6) dissociation of Mn(II) complexes. The saturation behavior of the plots of kd versus [H^+] (Figure 5) is characteristic for the equilibrium formation and the accumulation of the *[Mn(HL)] intermediate characterized by the *KH protonation constant (eq 5). The analysis of the rate constants obtained for Mn-CHXPYAN indicates a second-order dependence of kd on [H^+], which can be explained by the proton-assisted dissociation of the *[Mn(HL)] intermediate (k^H*[Mn(HL)], eq 7). [drawing 4] 4 [drawing 5] 5 [drawing 6] 6 [drawing 7] 7
In the presence of excess of the exchanging ion, the transmetalation can be treated as a pseudo-first-order process, and the rate of reactions can be expressed with eq 8, where kd is a pseudo-first-order rate constant and [MnL]t is the total concentration of the complex. [drawing 8] 8
Through consideration of all the possible pathways, the rate of the transmetalation of Mn-PYAN and Mn-CHXPYAN with Cu^2+ can be expressed by eq 9 [drawing 9] 9 Considering the total concentration of the Mn(II) complex ([MnL]t = [MnL] + [*Mn(HL)], as well as the equation defining the protonation constant for the formation of the *[Mn(HL)] intermediate (eq 5) and eq 8, the pseudo-first-order rate constant can be expressed as follows [drawing 10] 10 where k1 = k*[Mn(HL)] × *KH and k2 = k^H*[Mn(HL)] × *KH. The rate and protonation constants characterizing the transmetalation of Mn-PYAN and Mn-CHXPYAN with Cu^2+ have been calculated by fitting the kd values presented in Figure 5 to eq 10 and the values obtained are compared with the corresponding values of Mn-DOTA, Mn-DO3A, Mn-PCTA, Mn-PC3AM^H, and Mn-bispidine in Table 3.
Rates of the metal exchange reactions of Mn-PYAN and Mn-CHXPYAN with Cu^2+ were measured by spectrophotometry by following the formation of the related Cu(II) complexes at 295 nm with an Applied Photophysics DX-17MV stopped-flow instrument and PerkinElmer Lambda 365 UV–vis spectrophotometer using 1.0 cm cells, respectively. The concentration of Mn-PYAN and Mn-CHXPYAN was 1.0 × 10^–4 M, whereas the concentration of Cu^2+ was 10 and 20 times higher in order to guarantee pseudo-first-order conditions. The temperature was maintained at 25 °C and the ionic strength of the solutions was kept constant with 0.15 M NaCl. The exchange rates were studied in the pH range of ca. 2.0–4.5. To keep the pH values constant, monochloroacetic acid (pH range 2.0–3.3), 1,4-dimethylpiperazine (pH range 3.3–4.1), and N-methylpiperazine (pH range 4.1–4.5) buffers were used (0.01 M). […]

[6] = 1H NMR relaxometry (relaxivity as a function of pH); assay type: physicochemical; details: pH 3, 61 MHz, 25 °C, after dissociation of the complexes
Source text: The studies reported by Branco assumed the formation of a protonated [Mn(HL)]^3+ species for the Mn-PYAN complex characterized by protonation constant log KMnLH = 5.19 (KMnLH = [MnHL]/[MnL] × [H^+]).[42] However, our pH-potentiometric data could be fitted very well without considering the formation of protonated species or hydroxo-complexes. In order to confirm that the equilibrium model used to fit the pH-potentiometric data was correct, we measured the relaxivity (r1p) of aqueous solutions of the complexes as a function of pH (Figure 4). Relaxivity measures the ability of a paramagnetic solute to enhance the longitudinal relaxation rate of solvent water molecules, normalized for a 1 mM concentration of the paramagnetic ion.[45] The r1p values measured around neutral pH values (0.83 and 1.40 mM^–1 s^–1 at 61 MHz and 25 °C for Mn-PYAN and Mn-CHXPYAN, respectively) are typical of complexes that lack one or more water molecules in the inner coordination sphere, the observed relaxivity being the result of the outer-sphere contribution.[46] Relaxivity is fairly constant in the pH range of 6–9 but increases below pH ∼ 6 due to complex dissociation, reaching a relaxivity of 6.00 mM^–1 s^–1 at pH 3, 61 MHz, and 25 °C that is characteristic of the [Mn(H2O)6]^2+ complex.[47] The relaxivity profile matches the speciation diagrams calculated using the equilibrium constants obtained by pH potentiometry very well, which provides support for the equilibrium model used to fit the potentiometric data. It is worth noting that complex dissociation takes place at a lower pH for Mn-CHXPYAN than for Mn-PYAN, as expected, considering their pMn values.
The relaxivity values were calculated from the longitudinal relaxation time of H2O protons (T1) measured at 61 MHz on a Stelar relaxometer connected to a Bruker WP80 NMR electromagnet adapted to variable-field measurements (15–80 MHz proton Larmor frequency). […] The longitudinal relaxation time was measured with the “inversion recovery” method (180°–τ–90°) by using 12 different τ values with a typical 90° pulse width of 10.7 μs, 4 scans. […]

Structure (SMILES) | pMn ([1]; pMn = −log[Mn]free when [Mn^2+] = [L] = 10 μM at pH = 7.4) | log KMnL ([1]; stability constant of the Mn(II) complex) | log K1^H [2] | log K2^H [2] | log K3^H [2] | log K4^H [2] | log KMnL ([3]; 0.1 M KNO3) | log KMnL ([3]; 0.2 M KCl) | log K1^H ([4]; 0.1 M KNO3) | log K2^H ([4]; 0.1 M KNO3) | log K3^H ([4]; 0.1 M KNO3) | log K4^H ([4]; 0.1 M KNO3) | log K1^H ([4]; 0.2 M KCl) | log K2^H ([4]; 0.2 M KCl) | log K3^H ([4]; 0.2 M KCl) | log K4^H ([4]; 0.2 M KCl) | k1 ([5]; Mn(II) complex of the chelator) | kd at pH = 7.4 ([5]; Mn(II) complex of the chelator) | log*KH ([5]; protonation constant of the *[Mn(HL)] intermediate) | relaxivity [6]
c1cc2nc(c1)CNCCNCc1cccc(n1)CNCCNC2 [PYAN, 3,6,10,13-tetraaza-1,8(2,6)-dipyridinacyclotetradecaphane] | 7.18 | 11.93(3) | 9.02(1) | 8.27(1) | 6.06(1) | 5.18(2) | 11.79 | 12.5 | 8.99 | 8.22 | 6.03 | 5.34 | 9.13 | 8.32 | 6.12 | 5.24 | 827 ± 54 M^–1 s^–1 | 3.3 × 10^–5 s^–1 | 2.23 (4) | 
O.O.O.O.O.O.[Mn+2] [[Mn(H2O)6]^2+] |  |  |  |  |  |  |  |  |  |  |  |  |  |  |  |  |  |  |  | 6.00 mM^–1 s^–1
